Results on eleven compounds are retold here after US11731933B2, “Device and method for the desalination of water by means of thermal deionisation and liquid-phase ion extraction liquid” (ADIONICS, priority 2015, dated 2023).

Converted amounts (≈) assume the structure as drawn. “And” between values parts separate entries of the source, which are not always exact repeats. Identical values can stand only once. Like-named read-outs stand apart in the source and are kept apart here. Some results are limits rather than exact numbers.

The nature of data set [1]: Solubility in water (UV-visible spectrometry). It is filed as physicochemical. Particulars: for solubility: water. From the text: The hydrophobicity or solubility of a compound can be measured by standard methods and in particular by UV-visible spectrometry.
Data set [2] is described as follows: pKa in water at 25° C. It is filed as physicochemical. The procedure: The pKa (or acid constant) is defined as pKa=−log10(Ka), where Ka is the acid dissociation constant which is measured in a standard manner for such pKa. The recommended standard measurement method for high, basic pKa is preferably that described by Popov and al, IUPAC—Guidelines for NMR measurements for determination of high and low pKa Pure Apl. Chem., Vol. 78, No. 3, pp. 663-675, 2006.

The conditions of data set [3]: methanol, published complexing constants; cited from earlier work.
The nature of data set [4]: Log P. The data set is classed as physicochemical. Particulars: for logP: Exp.
For data set [5] the following is noted: methanol; cited from earlier work.
Data set [6] can be described thus: NaCl extraction from 0.2M NaCl water by ASM/CEM composition, ion chromatography of treated water. Conditions: ASM: 3TFMPhOH; CEM 0.2M; NaCl 0.2M water. How it is done:
To 3 mL of 3-(trifluoromethyl)phenol, was added 217 mg of Dibenzo-18-crown-6 in order to obtain a formulation with 0.2 mole/L of DB18C6. This sealed formulation was then orbitally stirred at 500 rpm overnight after 1 mL of distilled water was added twice to allow water saturation of the whole.
The next morning, an aqueous 0.2 mol/L NaCl solution was prepared from twice distilled water, while the formulation that was stirred overnight was allowed to stand for decantation. A clear decantation of the two colorless phases is obtained in a few minutes. 3 mL of the organic extraction solution is then removed and transferred to a flask containing 3 mL of this salt water containing 0.2 M NaCl, then the flask is sealed and orbitally stirred (usually 500 rpm), for 3 hours and at room temperature. It is verified that droplets of the order of 1-2 mm are present in quantity at the selected stirring speed (400 to 900 rpm).
After stirring for 2 hours, stirring is stopped and the whole is left to stand for decantation for at least 10 minutes until the two phases are completely separated. The upper aqueous phase is then removed and then stirred and diluted for analysis of its salinity by a Metrohm Ion Chromatography Incorporating a suitable cation analysis column and a suitable anion analysis column. Similarly, the initial aqueous solution of 0.2M NaCl is also analyzed by this ion chromatography equipment to determine its relative concentration of sodium and chlorides. […]

Experiment in data set [7]: as above
Particulars: dichloromethane instead of 3TFMPhOH.

Data set [8] in a line: NaCl extraction from 0.4M NaCl water by ASM + Calix[4]Est in chloroform (Example 11). How it is done:
The extraction composition is obtained by solubilizing an amount of 4-tert-butyl Calix[4]arene tetraethyl Ester (CAS No. 97600-39-0) and ASM in chloroform CHCl3 to obtain a final concentration after solubilization of the CEM and ASM of 0.3 mol/L for Calix[4]Est and of 0.3 mol/L for ASM, respectively. These sealed formulations were then orbitally stirred at 500 rpm for 2 hours after adding an equivalent volume of twice distilled water to allow water saturation of the entire formulation and control of pH output (pH=7). The extraction composition is then put to stand to settle. All the compositions tested are stable and rapidly decanted (a few minutes at the most).
A 0.4 mol/L NaCl aqueous solution was prepared from twice distilled water.
The organic extraction composition is then slightly heated to promote solubilization of the compounds by hot air gun (temperature of about 50 to 60° C.) for a few seconds (10 to 30 seconds) until a clear solution is obtained.
3 mL of the organic extraction composition is then removed from the lower phase of the settled two-phase mixture and transferred to a vial containing 3 mL of salt water at 0.4 M NaCl and then the flask is sealed and orbitally stirred (at 500 revolutions per minute), for 2 hours at room temperature (RT), that is to say between 20 and 25° C. In the case of extraction at 60° C., magnetic stirring (at 500 revolutions per minute), for 2 hours, is carried out with indirect heating in a metal mold on a heating plate. It is verified that droplets of the order of 1-2 mm are present during these agitations in order to be certain to achieve equilibrium in the NaCl distribution between the two liquid phases at the end of stirring. The appearance of the organic and aqueous phases is clear and colorless or slightly cloudy.
After stirring for 2 hours, stirring is stopped and the solution is put to stand to settle within 10 minutes, at least until the two phases have completely separated off, at the temperature of the test. The upper aqueous phase is then removed and then stirred and diluted for analysis of its salinity by a Metrohm Ion Chromatograph incorporating a suitable cation analysis column and a suitable anion analysis column. Similarly, the initial aqueous solution of NaCl at 0.4M is also analyzed by this ion chromatograph to determine its relative molar concentration in sodium and in chlorides. AN extractions and analyzes were duplicated.

Setting [9] is: RT, CEM 0.3 Mol/L, ASM 0.3 Mol/L in CHCl3, 0.4 M NaCl.

The term solubility denotes how much of the substance goes into solution per volume. For orientation: pKa means the negative logarithm of the acid dissociation constant. Read a low pKa as a group that gives up its proton readily. With `OCc1cc(C(F)(F)C(F)(F)C(F)(F)F)cc(C(F)(F)C(F)(F)C(F)(F)F)c1` [ASM 6, [3,5-(Perfluoropropyl)phenyl]methanol], the solubility in data set [1] is less than 70 µM. In data set [2], this compound yielded a pKa of 14.2.
What is called logP is the decadic logarithm of the partition coefficient of the neutral form, usually between octanol and water. Higher therefore signals a more lipophilic compound. Take `c1ccc2c(c1)OCCOCCOCCOc1ccccc1OCCOCCOCCO2` [DB24C8, 6,7,9,10,12,13,20,21,23,24,26,27-Dodecahydrodibenzo[b,n][1,4,7,10,13,16,19,22] octaoxacyclotetracosine]: the “Log K(Na+, MeOH, 25° C.)” value in data set [3] is 2.25 and 2.35. For the same compound, in data set [4], the logP stood at 2.11. The “Log K(K+, MeOH, 25° C.)” value in data set [5] is on record as 3.61. Also, in data set [6], the “Extraction rate at 23° C., Cl−” value is 37.1%; the “Extraction rate at 23° C., Na+” value turned out to be 35.5%; the “Extraction rate at 23° C., mean NaCl” value is reported as 36.3%.
`c1ccc2c(c1)OCCOCCOc1ccccc1OCCOCCO2` [DB18C6, Dibenzo[b,k]-1,4,7,10,13,16-hexaoxacyclooctadecane]: in data set [1], the Solubility in water was determined as 1100 µM (≈ 396 µg/mL). Further, the “NaCl extraction with the ASM replaced by dichloromethane” value in data set [7] is listed as no more than 1.6%. The “Log K(Na+, MeOH, 25° C.)” value in data set [3] is given as 4.36-4.49. The compound further returned a logP in data set [4] of 2.2. The “Log K(K+, MeOH, 25° C.)” value in data set [5] is recorded as 5.12. In data set [6], the “Extraction rate at 23° C., Cl−” value was 38.8%; the “Extraction rate at 23° C., Na+” value was determined as 30.8%; the “Extraction rate at 23° C., mean NaCl” value is 34.6%.
Regarding `c1ccc2c(c1)OCCOCCOCCOCCO2` [B15C5, Benzo[b]-1,4,7,10,13-pentaoxa-cyclopentadecane], the “Log K(Na+, MeOH, 25° C.)” value in data set [3] is 3.03. Besides, in data set [4], the logP was 0.91. The “Log K(K+, MeOH, 25° C.)” value in data set [5] is listed as 3.93. In data set [6], the “Extraction rate at 23° C., Cl−” value is reported as 12.5%; the “Extraction rate at 23° C., Na+” value was found to be 17.2%; the “Extraction rate at 23° C., mean NaCl” value came out at 14.8%.
For `OCc1cc(C(F)(F)F)cc(C(F)(F)F)c1` [ASM 3, [3,5-Bis(Trifluoromethyl)phenyl]methanol], the “NaCl - 20° C. % ext (average)” value in data set [8] (20° C., average molar extraction) is recorded as 7.9%. In addition, in data set [8] (60° C., CEM 0.3 Mol/L, ASM 0.3 Mol/L in CHCl3, 0.4 M NaCl), the “Mol % Cl- extracted from the water to be treated” value was “not detected”. Besides, the “NaCl - 60° C. % ext (average)” value in data set [8] (60° C., average molar extraction) is recorded as 0.0%. Also, in data set [8] (setting [9]), the “Mol % Cl- extracted from the water to be treated” value is 8.2% and 8.8%; the “Mol % Na+ extracted from the water to be treated” value is 6.8% and 7.6%. The Δ % ext in data set [8] (difference 20° C. minus 60° C.) came out at 7.9%. In addition, in data set [1] (read-out: Solubility in water), the solubility turned out to be 2290 µM (≈ 559 µg/mL). The pKa in data set [2] turned out to be 14.7.
By Log P is commonly meant the decadic logarithm of the partition coefficient of the neutral form, usually between octanol and water. A higher Log P goes with a more lipophilic compound. Regarding `Oc1cccc(C(F)(F)F)c1` [ASM 1, 3-(Trifluoromethyl)phenol], the pKa in data set [2] was found to be 8.68. The “Log P” value in data set [4] is given as 2.95.
`OCc1cccc(C(F)(F)C(F)(F)C(F)(F)C(F)(F)F)c1` [ASM 5, [3-(Perfluorobutyl)phenyl]methanol]: in data set [1], the Solubility in water is less than 77 µM and the solubility is less than 77 µM. The pKa in data set [2] is 14.7.
`OCc1cccc(C(F)(F)F)c1` [ASM 2, [3-(Trifluoromethyl)phenyl]methanol] showed a Solubility in water in data set [1] of 32000 µM (≈ 5640 µg/mL). The pKa in data set [2] worked out at 14.7.
In turn, `C1CCC2OCCOCCOC3CCCCC3OCCOCCOC2C1` (centres unmarked) [DC18C6, Dicyclohexano-1,4,7,10,13,16-hexaoxacyclooctadecane] showed a Solubility in water in data set [1] of 36000 µM (≈ 13400 µg/mL). Also, the “Log K(Na+, MeOH, 25° C.)” value in data set [3] is reported as 4.27. Besides, the “Log K(K+, MeOH, 25° C.)” value in data set [5] is listed as 5.97. Moreover, in data set [6], the “Extraction rate at 23° C., Cl−” value turned out to be 30.3%; the “Extraction rate at 23° C., Na+” value is 29.1%; the “Extraction rate at 23° C., mean NaCl” value is given as 29.7%.
The compound `OCc1cc(C(F)(F)C(F)(F)C(F)(F)C(F)(F)F)cc(C(F)(F)C(F)(F)C(F)(F)C(F)(F)F)c1` displayed a solubility in data set [1] of 0.5 µM (≈ 0.272 µg/mL). In addition, the pKa in data set [2] amounted to 14.
`OCc1cc(C(F)(F)F)c(C(F)(F)F)c(C(F)(F)F)c1`: in data set [1] (read-out: Solubility in water), the solubility came out at 390 µM (≈ 122 µg/mL). Moreover, the pKa in data set [2] amounted to 13.6.
